ChEMBL document CHEMBL1141332, “Cytotoxic metabolites from an Indonesian sponge Lendenfeldia sp” (J Nat Prod, 2007)

Assays:
Format in all cases: functional
ACHN = assay: Cytotoxicity against human ACHN cells
Malme-3M = assay: Cytotoxicity against human MALME-3M cells
NCI/ADR-RES = assay: Cytotoxicity against human NCI/ADR-RES cells
IGROV-1 = assay: Cytotoxicity against human IGROV1 cells
OVCAR-4 = assay: Cytotoxicity against human OVCAR4 cells
PC-3 = assay: Cytotoxicity against human PC3 cells
SF-295 = assay: Cytotoxicity against human SF295 cells
MCF7 = assay: Cytotoxicity against human MCF7 cells
HCT-15 = assay: Cytotoxicity against human HCT15 cells
UO-31 = assay: Cytotoxicity against human UO31 cells
OVCAR-3 = assay: Cytotoxicity against human OVCAR-3 cells
NCI-H23 = assay: Cytotoxicity against human NCI-H23 cells
A549 = assay: Cytotoxicity against human A549 cells
LOX IMVI = assay: Cytotoxicity against human LOX IMVI cells
COLO 205 = assay: Cytotoxicity against human COLO205 cells
A498 = assay: Cytotoxicity against human A498 cells
HL-60 = assay: Cytotoxicity against human HL60 cells; details: Homo sapiens, HL-60
SN12C = assay: Cytotoxicity against human SN12C cells
MOLT-4 = assay: Cytotoxicity against human MOLT4 cells
SF-268 = assay: Cytotoxicity against human SF268 cells
HOP-92 = assay: Cytotoxicity against human HOP92 cells
SR = assay: Cytotoxicity against human SR cells
SK-OV-3 = assay: Cytotoxicity against human SK-OV-3 cells
M14 = assay: Cytotoxicity against human M14 cells
UACC-62 = assay: Cytotoxicity against human UACC62 cells
SW-620 = assay: Cytotoxicity against human SW620 cells
SK-MEL-5 = assay: Cytotoxicity against human SK-MEL-5 cells
DU-145 = assay: Cytotoxicity against human DU145 cells
SK-MEL-28 = assay: Cytotoxicity against human SK-MEL-28 cells
T47D = assay: Cytotoxicity against human T47D cells
NCI-H226 = assay: Cytotoxicity against human NCI-H226 cells
786-0 = assay: Cytotoxicity against human 786-0 cells
U-251 = assay: Cytotoxicity against human U251cells
HOP-62 = assay: Cytotoxicity against human HOP62 cells
K562 = assay: Cytotoxicity against human K562 cells
BT-549 = assay: Cytotoxicity against human BT549 cells
TK-10 = assay: Cytotoxicity against human TK10 cells
RXF 393 = assay: Cytotoxicity against human RXF393 cells
NCI-H322M = assay: Cytotoxicity against human NCI-H322M cells
SF-539 = assay: Cytotoxicity against human SF539 cells
OVCAR-8 = assay: Cytotoxicity against human OVCAR8 cells
NCI-H460 = assay: Cytotoxicity against human NCI-H460 cells
HCC 2998 = assay: Cytotoxicity against human HCC2998 cells
OVCAR-5 = assay: Cytotoxicity against human OVCAR5 cells
RPMI-8226 = assay: Cytotoxicity against human RPMI8226 cells
UACC-257 = assay: Cytotoxicity against human UACC257 cells
[1] = read-out: Log LC50 (the source's name) (converted)

In the case of `CC1OC(=O)[C@H]2[C@H]1[C@@H](O)C[C@H]1[C@]3(C)CC[C@H]4C(C)(C)CCC[C@]4(C)[C@H]3C[C@@H](O)[C@]21C` (stereo partly drawn), the GI50 (ACHN) is reported as 18.2 µM, the LC50 (ACHN) is reported as 56.2 µM and the TGI (ACHN; read-out: Log TGI (converted)) is reported as 31.6 µM. The GI50 (Malme-3M) was 26.9 µM, the CC50 (Malme-3M; [1]) was 91.2 µM and the TGI (Malme-3M; read-out: Log TGI (converted)) was 50.1 µM. The GI50 (NCI/ADR-RES) was 18.6 µM, the LC50 (NCI/ADR-RES) was 83.2 µM and the TGI (NCI/ADR-RES; read-out: Log TGI (converted)) was 39.8 µM. The GI50 (IGROV-1) was 30.9 µM, the CC50 (IGROV-1; [1]) was > 100 µM and the TGI (IGROV-1; read-out: Log TGI (converted)) was 81.3 µM. For the same compound, the GI50 (OVCAR-4) was 20.9 µM, the CC50 (OVCAR-4; [1]) was > 100 µM and the TGI (OVCAR-4; read-out: Log TGI (converted)) was 60.3 µM. For the same compound, the GI50 (PC-3) was 17 µM, the LC50 (PC-3) was > 100 µM and the TGI (PC-3; read-out: Log TGI (converted)) was 55 µM. The GI50 (SF-295) was 19.5 µM, the CC50 (SF-295; [1]) was > 100 µM and the TGI (SF-295; read-out: Log TGI (converted)) was 50.1 µM. For the same compound, the GI50 (MCF7) was 34.7 µM, the LC50 (MCF7) was > 100 µM and the TGI (MCF7; read-out: Log TGI (converted)) was > 100 µM. It also gave a GI50 (HCT-15) of 16.2 µM, a CC50 (HCT-15; [1]) of 60.3 µM and a TGI (HCT-15; read-out: Log TGI (converted)) of 31.6 µM. The GI50 (UO-31) was 20.4 µM, the LC50 (UO-31) was 75.9 µM and the TGI (UO-31; read-out: Log TGI (converted)) was 39.8 µM. The GI50 (OVCAR-3) was 11.5 µM, the CC50 (OVCAR-3; [1]) was 60.3 µM and the TGI (OVCAR-3; read-out: Log TGI (converted)) was 26.3 µM. It also gave a GI50 (NCI-H23) of 20.4 µM, a CC50 (NCI-H23; [1]) of 67.6 µM and a TGI (NCI-H23; read-out: Log TGI (converted)) of 37.2 µM. It also gave a GI50 (A549) of 15.8 µM, a CC50 (A549; [1]) of 89.1 µM and a TGI (A549; read-out: Log TGI (converted)) of 37.2 µM. It also gave a GI50 (LOX IMVI) of 17.4 µM, a CC50 (LOX IMVI; [1]) of 56.2 µM and a TGI (LOX IMVI; read-out: Log TGI (converted)) of 30.9 µM. The GI50 (COLO 205) was 15.8 µM, the CC50 (COLO 205; [1]) was 66.1 µM and the TGI (COLO 205; read-out: Log TGI (converted)) was 32.4 µM. The GI50 (A498) was 18.6 µM, the LC50 (A498) was 72.4 µM and the TGI (A498; read-out: Log TGI (converted)) was 37.2 µM. For the same compound, the GI50 (HL-60) was 11.7 µM, the CC50 (HL-60; [1]) was > 100 µM and the TGI (HL-60; read-out: Log TGI (converted)) was 36.3 µM. The GI50 (SN12C) was 17.4 µM, the LC50 (SN12C) was > 100 µM and the TGI (SN12C; read-out: Log TGI (converted)) was 46.8 µM. The GI50 (MOLT-4) was 4.79 µM, the CC50 (MOLT-4; [1]) was > 100 µM and the TGI (MOLT-4; read-out: Log TGI (converted)) was 20.9 µM. For the same compound, the GI50 (SF-268) was 22.4 µM, the CC50 (SF-268; [1]) was > 100 µM and the TGI (SF-268; read-out: Log TGI (converted)) was 49 µM. The GI50 (HOP-92) was 17 µM, the CC50 (HOP-92; [1]) was 93.3 µM and the TGI (HOP-92; read-out: Log TGI (converted)) was 39.8 µM. The GI50 (SR) was 8.51 µM, the CC50 (SR; [1]) was > 100 µM and the TGI (SR; read-out: Log TGI (converted)) was 35.5 µM. For the same compound, the GI50 (SK-OV-3) was 38.9 µM, the CC50 (SK-OV-3; [1]) was > 100 µM and the TGI (SK-OV-3; read-out: Log TGI (converted)) was > 100 µM. The GI50 (M14) was 19.1 µM, the CC50 (M14; [1]) was 69.2 µM and the TGI (M14; read-out: Log TGI (converted)) was 36.3 µM. The GI50 (UACC-62) was 19.5 µM, the CC50 (UACC-62; [1]) was 97.7 µM and the TGI (UACC-62; read-out: Log TGI (converted)) was 43.7 µM. It also gave a GI50 (SW-620) of 12 µM, a CC50 (SW-620; [1]) of 52.5 µM and a TGI (SW-620; read-out: Log TGI (converted)) of 25.1 µM. For the same compound, the GI50 (SK-MEL-5) was 13.5 µM, the CC50 (SK-MEL-5; [1]) was 52.5 µM and the TGI (SK-MEL-5; read-out: Log TGI (converted)) was 26.3 µM. The GI50 (DU-145) was 17 µM, the LC50 (DU-145) was 72.4 µM and the TGI (DU-145; read-out: Log TGI (converted)) was 34.7 µM. It also gave a GI50 (SK-MEL-28) of 20 µM, a CC50 (SK-MEL-28; [1]) of 66.1 µM and a TGI (SK-MEL-28; read-out: Log TGI (converted)) of 36.3 µM. The GI50 (T47D) was 24.5 µM, the LC50 (T47D) was > 100 µM and the TGI (T47D; read-out: Log TGI (converted)) was 63.1 µM. It also gave a GI50 (NCI-H226) of 20 µM, a CC50 (NCI-H226; [1]) of 87.1 µM and a TGI (NCI-H226; read-out: Log TGI (converted)) of 41.7 µM. The GI50 (786-0) was 15.8 µM, the CC50 (786-0; [1]) was 56.2 µM and the TGI (786-0; read-out: Log TGI (converted)) was 30.2 µM. For the same compound, the GI50 (U-251) was 17 µM, the CC50 (U-251; [1]) was 61.7 µM and the TGI (U-251; read-out: Log TGI (converted)) was 32.4 µM. The GI50 (HOP-62) was 15.1 µM, the CC50 (HOP-62; [1]) was 55 µM and the TGI (HOP-62; read-out: Log TGI (converted)) was 28.8 µM. For the same compound, the GI50 (K562) was 29.5 µM, the CC50 (K562; [1]) was > 100 µM and the TGI (K562; read-out: Log TGI (converted)) was 55 µM. The GI50 (BT-549) was 17 µM, the LC50 (BT-549) was 64.6 µM and the TGI (BT-549; read-out: Log TGI (converted)) was 33.1 µM. For the same compound, the GI50 (TK-10) was 30.2 µM, the LC50 (TK-10) was > 100 µM and the TGI (TK-10; read-out: Log TGI (converted)) was 79.4 µM. For the same compound, the GI50 (RXF 393) was 14.8 µM, the LC50 (RXF 393) was 58.9 µM and the TGI (RXF 393; read-out: Log TGI (converted)) was 29.5 µM. The GI50 (NCI-H322M) was 31.6 µM, the CC50 (NCI-H322M; [1]) was > 100 µM and the TGI (NCI-H322M; read-out: Log TGI (converted)) was 93.3 µM. It also gave a GI50 (SF-539) of 19.1 µM, a CC50 (SF-539; [1]) of 67.6 µM and a TGI (SF-539; read-out: Log TGI (converted)) of 36.3 µM. For the same compound, the GI50 (OVCAR-8) was 25.1 µM, the CC50 (OVCAR-8; [1]) was > 100 µM and the TGI (OVCAR-8; read-out: Log TGI (converted)) was 63.1 µM. The GI50 (NCI-H460) was 20.9 µM, the CC50 (NCI-H460; [1]) was 89.1 µM and the TGI (NCI-H460; read-out: Log TGI (converted)) was 42.7 µM. For the same compound, the GI50 (HCC 2998) was 15.5 µM, the CC50 (HCC 2998; [1]) was 56.2 µM and the TGI (HCC 2998; read-out: Log TGI (converted)) was 29.5 µM. It also gave a GI50 (OVCAR-5) of 20.9 µM, a CC50 (OVCAR-5; [1]) of 75.9 µM and a TGI (OVCAR-5; read-out: Log TGI (converted)) of 39.8 µM. The GI50 (RPMI-8226) was 16.2 µM, the CC50 (RPMI-8226; [1]) was > 100 µM and the TGI (RPMI-8226; read-out: Log TGI (converted)) was 51.3 µM. The GI50 (UACC-257) was 28.2 µM, the CC50 (UACC-257; [1]) was > 100 µM and the TGI (UACC-257; read-out: Log TGI (converted)) was 83.2 µM.
